# Data taken from patent publication US8334316B2, “Substituted organosulfur compounds and methods of using thereof” (ACEA Biosciences, Inc., priority 2004, dated 2012).
# Like-named read-outs stand apart in the source and are kept apart here.
# Assay: Acute toxicity, single intravenous injection, LD50 (Bliss method) in Kunming mice
# Assay type: in vivo
# Details: for Dead animals on each day after the single intravenous injection (c3-c11 = day 1-9, c12 = day 10-14): 163.8 mg/kg; for LD50 at 2 weeks: Kunming, mouse, in vivo, iv
# Procedure: To evaluate the in vivo acute, intravenous toxicity of DBTS and ACEA100108 (a derivative of DBTS, see Table 33), the experiments were performed in non-tumor bearing, normal Kunming mice by monitoring the acute response of mice to a single dose of DBTS or ACEA100108 via intravenous injection (i.v.). The number of death for the treated mice was monitored and recorded. LD50 values for these compounds were calculated. Details of the study are provided below.
# The experiments to test DBTS and ACEA100108 acute toxicity were performed in mice. The test mice were randomly divided into six groups (five dosing groups and one control group). Each group contained 20 Kunming strain mice, and among them, 50% were male and 50% were female. After administration of a single dose of DBTS or ACEA100108 via intravenous injection (i.v.), the acute response to DBTS or ACEA100108 compound, and the death of the treated mice during the first two weeks were monitored and recorded. The LD50 value was calculated using the Bliss method.
# Materials and Method. The test chemical compound were DBTS and ACEA100108, which were dissolved into hydrogenated castor oil in the pre-warmed water bath and made as a 20 mg/ml solution. The solution was further diluted to desired experiment concentrations with the normal saline. The administration volume was 0.5 ml i.v. per mouse and the injection speed was 0.5 ml/0.5 min.
# The experimental mice were Kunming strain, provided by the Experimental Animal Department, Shanghai Pharmaceutical Industry Institute. The certificate number of the facility was Animal Facility Certification Number 107. The average weight of the mice was 18-20 gram. Each test group contained 20 Kunming strain mice, and among them, 10 mice were male and 10 mice were female. […] The mice in the control group were only given the same volume of the solvent, which were diluted hydrogenated castor oil. All the testing mice were given a single intravenous injection of DBTS, ACEA100108, or the solvent that served as the control at the injection speed of 0.5 ml/0.5 min. The acute response to DBTS, ACEA100108 or the solvent immediately after the administration, as well as weight change, and the death within the first two weeks of the administration were monitored and recorded. The intravenous injection LD50 values in mice were calculated using the Bliss method.
# [1] = female, 163.8 mg/kg single i.v.
# [2] = female, 204.8 mg/kg single i.v.
structure (smiles),measurement,setting,value
"c1ccc(CSSSCc2ccccc2)cc1 [DBTS, Dibenzyl trisulfide]",Percentage of dead animals %,"50% male, 50% female, 163.8 mg/kg single i.v.",0%
same,"Dead animals on each day after the single intravenous injection (c3-c11 = day 1-9, c12 = day 10-14)","50% male, 50% female, 20 animals, deaths on day 8 after injection",0
same,"Dead animals on each day after the single intravenous injection (c3-c11 = day 1-9, c12 = day 10-14)","50% male, 50% female, 20 animals, deaths on days 10-14 after injection",0 - - - 0
same,Percentage of dead animals %,"50% male, 50% female, 204.8 mg/kg single i.v.",15%
same,Percentage of dead animals %,"50% male, 50% female, 256 mg/kg single i.v.",45%
same,Percentage of dead animals %,"50% male, 50% female, 320 mg/kg single i.v.",85%
same,Percentage of dead animals %,"50% male, 50% female, 400 mg/kg single i.v.",100%
same,"mouse single i.v. dose LD50, interval in parentheses","Kunming mice, 50% male 50% female, Bliss method",234.96 to 284.56 mg/kg
same,LD50 at 2 weeks,"both sexes, 50% male, 50% female Kunming mice, single i.v., read-out: LD50",259 mg/kg
same,LD50 at 2 weeks,"both sexes, 50% male, 50% female Kunming mice, single i.v., read-out: LD50 (95% CL)",235 to 284 mg/kg
same,LD50 at 2 weeks,"both sexes, Kunming mice, 50% male 50% female, Bliss method, read-out: mouse single i.v. dose LD50, interval in parentheses",235 to 284 mg/kg
same,LD50 at 2 weeks,"both sexes, Kunming mice, 50% male 50% female, Bliss method, read-out: mouse single i.v. dose LD50 value",259 mg/kg
same,Average animal weight (g) Beginning,[1],19.9 g
same,Average animal weight (g) End,[1],24.5 g
same,Percentage of dead animals %,[1],0%
same,"Dead animals on each day after the single intravenous injection (c3-c11 = day 1-9, c12 = day 10-14)","female, 10 animals, deaths on day 8 after injection",0
same,"Dead animals on each day after the single intravenous injection (c3-c11 = day 1-9, c12 = day 10-14)","female, 10 animals, deaths on days 10-14 after injection",0 - - - 0
same,Average animal weight (g) Beginning,[2],20.5 g
same,Percentage of dead animals %,[2],20%
same,Average animal weight (g) End,"female, 204.8 mg/kg single i.v., survivors",24.3 g
same,Average animal weight (g) Beginning,"female, 256 mg/kg single i.v.",19.9 g
same,Percentage of dead animals %,"female, 256 mg/kg single i.v.",50%
same,Average animal weight (g) End,"female, 256 mg/kg single i.v., survivors",24.2 g
same,Average animal weight (g) Beginning,"female, 320 mg/kg single i.v.",20.6 g
same,Percentage of dead animals %,"female, 320 mg/kg single i.v.",80%
same,Average animal weight (g) End,"female, 320 mg/kg single i.v., survivors",24.5 g
same,Average animal weight (g) Beginning,"female, 400 mg/kg single i.v.",19.8 g
same,Percentage of dead animals %,"female, 400 mg/kg single i.v.",100%
same,LD50 at 2 weeks,"female, female Kunming mice, single i.v., read-out: LD50",256 mg/kg
same,LD50 at 2 weeks,"female, female Kunming mice, single i.v., read-out: LD50 (95% CL)",222 to 296 mg/kg
same,Average animal weight (g) Beginning,"male, 163.8 mg/kg single i.v.",20.0 g
same,Average animal weight (g) End,"male, 163.8 mg/kg single i.v.",26.9 g
same,Percentage of dead animals %,"male, 163.8 mg/kg single i.v.",0%
same,"Dead animals on each day after the single intravenous injection (c3-c11 = day 1-9, c12 = day 10-14)","male, 10 animals, deaths on day 8 after injection",0
same,"Dead animals on each day after the single intravenous injection (c3-c11 = day 1-9, c12 = day 10-14)","male, 10 animals, deaths on days 10-14 after injection",0 - - - 0
same,Average animal weight (g) Beginning,"male, 204.8 mg/kg single i.v.",19.9 g
same,Percentage of dead animals %,"male, 204.8 mg/kg single i.v.",10%
same,Average animal weight (g) End,"male, 204.8 mg/kg single i.v., survivors",26.6 g
same,Average animal weight (g) Beginning,"male, 256 mg/kg single i.v.",20.4 g
same,Percentage of dead animals %,"male, 256 mg/kg single i.v.",40%
same,Average animal weight (g) End,"male, 256 mg/kg single i.v., survivors",26.3 g
same,Average animal weight (g) Beginning,"male, 320 mg/kg single i.v.",20.1 g
same,Percentage of dead animals %,"male, 320 mg/kg single i.v.",90%
same,Average animal weight (g) End,"male, 320 mg/kg single i.v., survivors",25.0 g
same,Average animal weight (g) Beginning,"male, 400 mg/kg single i.v.",20.1 g
same,Percentage of dead animals %,"male, 400 mg/kg single i.v.",100%
same,LD50 at 2 weeks,"male, male Kunming mice, single i.v., read-out: LD50",261 mg/kg
same,LD50 at 2 weeks,"male, male Kunming mice, single i.v., read-out: LD50 (95% CL)",230 to 296 mg/kg
